ChEMBL document CHEMBL1201862, “PubChem BioAssay data set” (2004)
Structures can show the parent of a compound that is named as a salt.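 Assay format: 96-well plates, 48-hour exposure. The concentration for 50% growth inhibition is given as GI50.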 The source made the active and inactive calls. Rule as the data show it: active = GI50 up to about 1.1 µM and inactive = higher.

Assays:
Assay in all cases: NCI tumour cell line growth inhibition, 48 h
SF-539 = tested on: SF-539
SK-MEL-2 = tested on: SK-MEL-2
HCT-116 = tested on: HCT-116
SF-295 = tested on: SF-295
COLO 205 = tested on: COLO 205
ACHN = tested on: ACHN
K562 = tested on: K562
HT-29 = tested on: HT-29
OVCAR-4 = tested on: OVCAR-4
PC-3 = tested on: PC-3
LOX IMVI = tested on: LOX IMVI
A498 = tested on: A498
RPMI-8226 = tested on: RPMI-8226
NCI-H460 = tested on: NCI-H460
HOP-62 = tested on: HOP-62
SK-MEL-28 = tested on: SK-MEL-28
BT-549 = tested on: BT-549
HOP-92 = tested on: HOP-92
Hs-578T = tested on: Hs-578T

Measured: GI50

COC(=O)c1cc(S(=O)(=O)NC2=NNC(C)CN2)c(S)cc1Cl (stereo not given)
inactive: SF-539 40.5 µM | SK-MEL-2 26 µM | HCT-116 30.6 µM | SF-295 54.3 µM | COLO 205 52.7 µM | ACHN > 100 µM | K562 47.1 µM | HT-29 42.7 µM | OVCAR-4 33.9 µM | PC-3 42.8 µM | LOX IMVI 37.5 µM | A498 34.5 µM | RPMI-8226 31.2 µM | NCI-H460 44.8 µM | HOP-62 > 100 µM | SK-MEL-28 36.7 µM | BT-549 > 100 µM

CC(=O)OC1COC(n2nc(N)nc2C)C(OC(C)=O)C1OC(C)=O (stereo not given)
inactive: SK-MEL-2 > 100 µM | HCT-116 > 100 µM | SF-295 > 100 µM | COLO 205 > 100 µM | ACHN > 100 µM | K562 > 100 µM | HT-29 > 100 µM | OVCAR-4 > 100 µM | PC-3 > 100 µM | LOX IMVI > 100 µM | HOP-92 > 100 µM | A498 > 100 µM | RPMI-8226 > 100 µM | NCI-H460 > 100 µM | HOP-62 > 100 µM | SK-MEL-28 > 100 µM | BT-549 > 100 µM

CC1CC/C(=C\c2ccc(F)cc2)C(=O)/C1=C/c1ccc(F)cc1 (stereo not given)
inactive: SF-539 3.68 µM | SK-MEL-2 4.83 µM | HCT-116 2.5 µM | SF-295 2.84 µM | COLO 205 5.77 µM | ACHN 4.15 µM | K562 3.76 µM | HT-29 2.92 µM | PC-3 5.2 µM | LOX IMVI 2.77 µM | A498 12.6 µM | Hs-578T 6.58 µM | RPMI-8226 1.61 µM | SK-MEL-28 13.2 µM | BT-549 3.58 µM

COc1cc2c(cc1OC)C(N(C)C)C(c1ccccc1)=C2Cl (stereo not given)
inactive: SF-539 20.5 µM | SK-MEL-2 18.7 µM | SF-295 22.8 µM | COLO 205 17.9 µM | K562 27.9 µM | HT-29 19.9 µM | OVCAR-4 27.4 µM | LOX IMVI 17.4 µM | HOP-92 17.9 µM | A498 22.5 µM | RPMI-8226 18.2 µM | NCI-H460 19 µM | HOP-62 36.4 µM | SK-MEL-28 18.7 µM

O=c1[nH]c(=O)n(C2CC(O)C(CO)O2)cc1Oc1ccccc1 (stereo not given)
inactive: HCT-116 > 100 µM | SF-295 47.4 µM | COLO 205 > 100 µM | ACHN > 100 µM | K562 > 100 µM | HT-29 > 100 µM | OVCAR-4 > 100 µM | PC-3 > 100 µM | LOX IMVI > 100 µM | Hs-578T > 100 µM | RPMI-8226 > 100 µM | NCI-H460 > 100 µM | HOP-62 > 100 µM | SK-MEL-28 > 100 µM | BT-549 > 100 µM

c1csc(-c2ccsc2-c2cccs2)c1
inactive: SF-539 > 100 µM | HCT-116 92.9 µM | SF-295 > 100 µM | COLO 205 52.2 µM | ACHN > 100 µM | HT-29 > 100 µM | OVCAR-4 33 µM | LOX IMVI 98.6 µM | HOP-92 > 100 µM | A498 36 µM | Hs-578T 52.8 µM | RPMI-8226 16.8 µM | NCI-H460 80.9 µM | HOP-62 > 100 µM

Oc1ccc(-c2nc(-c3cccnc3)c(-c3ccc(Cl)cc3)[nH]2)cc1
inactive: SK-MEL-2 18.2 µM | HCT-116 13.4 µM | SF-295 14 µM | COLO 205 10.3 µM | ACHN 14.5 µM | K562 10.5 µM | HT-29 15.2 µM | OVCAR-4 11.2 µM | PC-3 5.58 µM | LOX IMVI 6.89 µM | Hs-578T 19.4 µM | RPMI-8226 3.47 µM | NCI-H460 11.1 µM | HOP-62 16.9 µM | SK-MEL-28 16 µM | BT-549 15.3 µM

CN(C)CCOc1ccc(/C(=C(/CCCl)c2ccccc2)c2ccccc2)cc1 [TOREMIFENE CITRATE]
inactive: SF-539 16.2 µM | SK-MEL-2 15.5 µM | HCT-116 16.7 µM | SF-295 15 µM | COLO 205 19.4 µM | ACHN 17.5 µM | K562 11.5 µM | HT-29 5.81 µM | OVCAR-4 17.3 µM | PC-3 16.4 µM | LOX IMVI 18.1 µM | HOP-92 3.67 µM | Hs-578T 17.2 µM | RPMI-8226 4.45 µM | NCI-H460 15.7 µM | HOP-62 15.5 µM | SK-MEL-28 16 µM
